This is an account of results in patent US20240180890A1, “VACCINE ADJUVANT” (Celleron Therapeutics Limited, priority 2021, published 2024).

The structures appear in SMILES notation.

The subject of data set [1] is HDAC Class II. As to the kind of experiment: HDAC Class II inhibition. Type of data set: biochemical. Conditions: no activity against HDAC Class II.
Data set [2] has as its system peptide-specific CD8 T cells. As to the kind of experiment: Immunogenicity experiment with CXD101 and peptide vaccine. The format is in vivo, C57BL/6 mice. On the procedure:
C57BL/6 mice were treated with orally administrated CXD101 at 10 mg/kg for 14 days (5 days on/2 days off) and intravenous D8V and 18V peptides vaccination (days 1 and 7) with respect to vehicle only control; n=5 per group; • B) 18V-peptide specific CD8 positive T cells with tetramers (i) and general T cell activation (CD8+ CD44+ CD62L− tetramer positive T cells) measurements by flow cytometry; n=5; • C) Representative examples of immunohistochemical staining of H3AcK9 in lungs (i) collected from C57BL/6 mice at 14 days treated with 25 mg/kg CXD101 and non-treated control. Original magnification: 20×, scale bar, 50 μm; and 63×; scale bar, 16 μm. n=3; (ii) results were quantified by ImageJ Fiji software and normalised optical density was presented as a mean+/−SD. […]
Twenty C57BL/6 female mice (5 mice per group: control; CXD101 treated; peptide vaccinated; CXD101/peptide vaccinated) where 10 mice were vaccinated intravenously with 30 μg of peptides encoding CD8 T cell epitopes from the beta-galactosidase gene, βgale96-103 (DAPIYTNV; D8V), the βgal497-504 (ICPMYARV; 18V) (Genscript) with 30 μg polylC (InVivogen) and 25 μg anti-CD40 (2bScientific). […] Mice were bled at day 6 and 13 post prime and the levels of peptide-specific CD8 T cells measured by detection with tetramers followed by flow cytometry.

The nature of data set [3]: physchem. The following applies: 25 °C, aqueous buffer.

One may read the IC50 as the midpoint of a concentration-inhibition curve. A higher IC50 goes with weaker potency. One may read the solubility as the dissolved amount per volume that the medium holds. Lower therefore signals a poorly soluble substance. Molecule `Cc1nn(C)cc1CN1CCC(c2ccc(C(=O)Nc3ccccc3N)cc2)CC1` [CXD101/zabinostat, N-(2-aminophenyl)-4-(1-[(1,3-dimethyl-1H-pyrazol-4-yl)methyl]piperidin-4yl)benzamide] yielded an IC50 in data set [1] of at least 2500 nM. The “immunogenicity against a peptide-based vaccine” value in data set [2] (C57BL/6 mice, oral CXD101, intravenous D8V and 18V peptides vaccination, tetramers and flow cytometry (FIG. 7)) was “induces immunogenicity against a peptide-based vaccine”. Also, the “immune response to an immunogenic protein” value in data set [2] (normal healthy cells and animals) was “potentiates the immune response”. In data set [3], this molecule gave a solubility of at least 500 µg/mL.
